Experimental findings from EP1763509B1, “ALPHA-HELICAL MIMETICS” (THE WALTER AND ELIZA HALL INSTITUTE OF MEDICAL RESEARCH, priority 2004, dated 2006) are described below.

Assay [1] concerns the target T1, Bcl-wΔ29 (Homo sapiens, UniProt Q92843).
T1 construct: GST tagged Bclw ΔC29 protein
T1 sequence (Q92843 1-164 limits assumed): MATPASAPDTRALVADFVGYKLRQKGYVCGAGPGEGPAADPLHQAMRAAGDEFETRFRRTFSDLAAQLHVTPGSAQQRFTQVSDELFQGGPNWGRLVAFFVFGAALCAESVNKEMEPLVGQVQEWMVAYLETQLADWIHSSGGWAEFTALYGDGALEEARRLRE
Put plainly: Alphascreen GST competition binding assay, benzoylurea compounds vs Biotinylated Bim BH3-26 peptide on GST tagged Bclw ΔC29 protein. Particulars: GST tagged Bclw ΔC29 protein 0.05 nM, Biotinylated Bim BH3-26 peptide 3.0 nM, 4 hours at room temperature; values marked a tested in a separate experiment; n.b. = not binding in the assay conditions. (In general: In Alpha technology, singlet oxygen from a donor bead excites a nearby acceptor bead.)

The target of assay [2] is T2, Bcl-xLΔ25 (Homo sapiens, UniProt Q07817).
T2 construct: GST tagged Bcl-xL ΔC25 protein
The assay is described as follows: Alphascreen GST competition binding assay, benzoylurea compounds vs Biotinylated Bim BH3-26 peptide on GST tagged Bcl-xL ΔC25 protein. As to conditions: GST tagged Bcl-xL ΔC25 protein 0.6 nM, Biotinylated Bim BH3-26 peptide 5.0 nM, 4 hours at room temperature; n.b. = not binding in the assay conditions.

Assay [3] addresses Mcl-1 (Homo sapiens, UniProt Q07820). The assay is described as follows: Alphascreen GST competition binding assay, benzoylurea compounds vs Biotinylated Bak BH3 peptide on GST tagged Mcl-1 protein. Particulars: GST tagged Mcl-1 protein 0.4 nM, Biotinylated Bak BH3 peptide 4.0 nM, 4 hours at room temperature; n.b. = not binding in the assay conditions.

T2 sequence (Q07817 1-208 limits assumed, stated change not applied): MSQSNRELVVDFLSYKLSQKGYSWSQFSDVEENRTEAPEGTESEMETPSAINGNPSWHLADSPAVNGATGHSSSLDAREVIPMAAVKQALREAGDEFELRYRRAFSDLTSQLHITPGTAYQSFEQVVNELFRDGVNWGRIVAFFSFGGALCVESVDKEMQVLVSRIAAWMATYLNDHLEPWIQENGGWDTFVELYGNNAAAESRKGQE
Mcl-1, sequence (Q07820 whole entry, species assumed): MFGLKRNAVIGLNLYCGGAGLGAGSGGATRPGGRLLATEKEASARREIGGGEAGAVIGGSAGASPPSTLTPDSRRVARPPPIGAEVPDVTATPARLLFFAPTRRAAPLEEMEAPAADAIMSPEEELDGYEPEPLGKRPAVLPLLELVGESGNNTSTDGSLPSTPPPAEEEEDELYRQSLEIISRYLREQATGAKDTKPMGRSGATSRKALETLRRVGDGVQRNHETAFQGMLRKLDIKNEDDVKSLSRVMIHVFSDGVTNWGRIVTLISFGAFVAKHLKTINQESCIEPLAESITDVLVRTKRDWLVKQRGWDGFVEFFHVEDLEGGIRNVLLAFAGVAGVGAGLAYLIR

By IC50 is commonly meant the midpoint of a concentration-inhibition curve. Read a high IC50 as a need for much substance. As for `CCC(C)N(C(=O)N[C@@H](CSCc1ccccc1)C(=O)O)C(=O)c1cccc(-c2ccccc2)c1` (mixture of isomers) [(4)], the values for the concentration for half-maximal inhibition (IC50) in assay [1] and in assay [2] were 149 µM and 148 µM, respectively.
The like results for `CCCN(C(=O)N[C@@H](CSCc1ccccc1)C(=O)O)C(=O)c1cccc(-c2ccccc2)c1` [(1)] were, in that order, 38 µM and 70.1 µM.
On the same counts, the results for `CCCCN(C(=O)N[C@@H](CSCc1ccccc1)C(=O)O)C(=O)c1cccc(-c2ccccc2)c1` [(2)] are 57 µM and 56.8 µM.
On the same counts, the results for `CC(C)CN(C(=O)N[C@@H](CSCc1ccccc1)C(=O)O)C(=O)c1cccc(-c2ccccc2)c1` [(3)] are 65 µM and 65.8 µM.
Take `CC(C)N(C(=O)N[C@@H](CSCc1ccccc1)C(=O)O)C(=O)c1cccc(-c2ccccc2)c1` [(5)]: the IC50 in assay [1] came to 266 µM; in assay [2], 153 µM.
Consider `O=C(O)[C@H](CSCc1ccccc1)NC(=O)N(C(=O)c1cccc(-c2ccccc2)c1)C1CCCCC1` [(6)], for which the results for the IC50 in assay [1] and in assay [2] were 73 µM and 54.2 µM, respectively.
As to `O=C(O)[C@H](CSCc1ccccc1)NC(=O)N(CC1CCCCC1)C(=O)c1cccc(-c2ccccc2)c1` [(7)], the IC50 in assay [1] came out at 37 µM; in assay [2], 45.2 µM.
As for `O=C(O)[C@H](CSCc1ccccc1)NC(=O)N(Cc1ccccc1)C(=O)c1cccc(-c2ccccc2)c1` [(8)], the IC50 in assay [1] is 46 µM; in assay [2], 36.4 µM.
Turning to `Cc1ccc(CN(C(=O)N[C@@H](CSCc2ccccc2)C(=O)O)C(=O)c2ccc(-c3ccccc3)cc2)cc1` [(82)], the figures for the half-inhibitory concentration (IC50) in assay [1], in assay [2] and in assay [3] were 45 µM, 27 µM and 169 µM, respectively.
On the same counts, the results for `COc1ccc(CN(C(=O)N[C@@H](CSCc2ccccc2)C(=O)O)C(=O)c2ccc(-c3ccccc3)cc2)cc1` [(83)] are 35 µM, 14 µM and 77 µM.
On the same counts, the results for `O=C(O)[C@H](CSCc1ccccc1)NC(=O)N(Cc1ccc(Cl)cc1)C(=O)c1ccc(-c2ccccc2)cc1` [(84)] are 27 µM, 11 µM and 61 µM.
`O=C(O)[C@H](CSCc1ccccc1)NC(=O)N(Cc1ccc(Cl)c(Cl)c1)C(=O)c1ccc(-c2ccccc2)cc1` [(85)]: the IC50 is 40 µM in assay [1] and 95 µM in assay [3]. The “Bcl-xLΔ25 IC50 (µM)” value in assay [2] is recorded as “n.b.^b”.
Regarding `CCCN(C(=O)N[C@@H](CSCc1ccccc1)C(=O)O)C(=O)c1ccc(/C=C/c2ccccc2)cc1` [(86)], the half-inhibitory concentration (IC50) in assay [1] was found to be 82 µM; in assay [2] it was 283 µM. Besides, in assay [3], the “Mcl-1 IC50 (µM)” value is given as “n.b.^b”.
Consider `CCCN(C(=O)N[C@@H](CSCc1ccccc1)C(=O)O)C(=O)c1ccc(CCc2ccccc2)cc1` [(89)], for which the IC50 in assay [1] came to 50 µM; in assay [2], 86 µM; in assay [3] it was 107 µM.
On the same counts, the results for `CCCSC[C@H](NC(=O)N(CCC)C(=O)c1cccc(C#Cc2ccccc2)c1)C(=O)O` [(90)] are 39 µM, 22 µM and 70 µM.
Consider `CCCN(C(=O)N[C@@H](CSCC(C)C)C(=O)O)C(=O)c1cccc(C#Cc2ccccc2)c1` [(91)], for which the values for the IC50 in assay [1], in assay [2] and in assay [3] were 32 µM, 16 µM and 92 µM, respectively.
For `CCCN(C(=O)N[C@@H](CSC(C)C)C(=O)O)C(=O)c1cccc(C#Cc2ccccc2)c1` [(92)], the IC50 in assay [1] was 67 µM; in assay [2], 36 µM. Moreover, the “Mcl-1 IC50 (µM)” value in assay [3] was “n.b.^b”.
For `CCCN(C(=O)N[C@@H](CSc1ccccc1)C(=O)O)C(=O)c1cccc(C#Cc2ccccc2)c1` [(93)], the IC50 is 26 µM in assay [1], 27 µM in assay [2] and 53 µM in assay [3].
On the same counts, the results for `CCCN(C(=O)N[C@@H](CSCCc1ccccc1)C(=O)O)C(=O)c1cccc(C#Cc2ccccc2)c1` [(94)] are 19 µM, 23 µM and 46 µM.
In assay [2], `CCCCSC[C@H](NC(=O)N(CCC)C(=O)c1cccc(C#Cc2ccccc2)c1)C(=O)O` [(122)] had an IC50 of 26 µM.
In turn, `CCCCCSC[C@H](NC(=O)N(CCC)C(=O)c1cccc(C#Cc2ccccc2)c1)C(=O)O` [(123)] gave an IC50 in assay [2] of 30 µM.
Still for that read-out and setting: the figure for `CCCN(C(=O)N[C@@H](CSCCC(C)C)C(=O)O)C(=O)c1cccc(C#Cc2ccccc2)c1` [(124)] is 33 µM; for `CCCN(C(=O)N[C@@H](CSCC(CC)CC)C(=O)O)C(=O)c1cccc(C#Cc2ccccc2)c1` [(126)] it is 90 µM; for `CCCN(C(=O)N[C@@H](CSCC1CCCCC1)C(=O)O)C(=O)c1cccc(C#Cc2ccccc2)c1` [(127)] it is 40 µM.
On the same count and under the same terms, the value for `CCCN(C(=O)N[C@@H](CSCC1CC1)C(=O)O)C(=O)c1cccc(C#Cc2ccccc2)c1` [(128)] was 53 µM; that for `CCCN(C(=O)N[C@@H](CSCC1CCC1)C(=O)O)C(=O)c1cccc(C#Cc2ccccc2)c1` [(129)] was 37 µM; that for `CCCCN(C(=O)N[C@@H](CSCC(C)C)C(=O)O)C(=O)c1cccc(C#Cc2ccccc2)c1` [(130)] was 39 µM.
Same read-out and setting: the figure for `CC(C)CSC[C@H](NC(=O)N(CC(C)C)C(=O)c1cccc(C#Cc2ccccc2)c1)C(=O)O` [(131)] is 20 µM; for `CC(C)CCN(C(=O)N[C@@H](CSCC(C)C)C(=O)O)C(=O)c1cccc(C#Cc2ccccc2)c1` [(132)] it is 24 µM; for `CSCCN(C(=O)N[C@@H](CSCC(C)C)C(=O)O)C(=O)c1cccc(C#Cc2ccccc2)c1` [(133)] it is 27 µM.
Turning to `CCCN(C(=O)N[C@@H](CSCc1ccccc1)C(=O)O)C(=O)c1cccc(C#Cc2ccccc2[N+](=O)[O-])c1` [(135)], the half-inhibitory concentration (IC50) in assay [2] came to 32 µM; in assay [3] it was 57 µM.
As to `CCCN(C(=O)N[C@@H](CSCc1ccccc1)C(=O)O)C(=O)c1cccc(C#CCC(C)C)c1` [(136)], the IC50 came to 23 µM in assay [2] and 204 µM in assay [3].
On the same counts, the results for `CCCN(C(=O)N[C@@H](CSCC(C)C)C(=O)O)C(=O)c1cccc(C#Cc2ccc(F)cc2)c1` [(137)] are 9.5 µM and 132 µM.
On the same counts, the results for `CCCN(C(=O)N[C@@H](CSCC(C)C)C(=O)O)C(=O)c1cccc(C#Cc2ccc(Cl)cc2)c1` [(138)] are 26 µM and 146 µM.
On to `CCCN(C(=O)N[C@@H](CSCC(C)C)C(=O)O)C(=O)c1cccc(C#Cc2ccc(Br)cc2)c1` [(139)], for which the IC50 stood at 28 µM in assay [2] and 80 µM in assay [3].
On to `CCCN(C(=O)N[C@@H](CSCC(C)C)C(=O)O)C(=O)c1cccc(C#Cc2cccc(F)c2)c1` [(140)], for which the IC50 in assay [2] is 44 µM. For the same molecule, the “Mcl-1 IC50 (µM)” value in assay [3] is given as “n.b.^b”.
Turning to `CCCN(C(=O)N[C@@H](CSCC(C)C)C(=O)O)C(=O)c1cccc(C#Cc2cccc(Cl)c2)c1` [(141)], the IC50 is 28 µM in assay [2] and 84 µM in assay [3].
The like results for `CCCN(C(=O)N[C@@H](CSCC(C)C)C(=O)O)C(=O)c1cccc(C#Cc2cccc(Br)c2)c1` [(142)] were, in that order, 32 µM and 70 µM.
The like results for `CCCN(C(=O)N[C@@H](CSCC(C)C)C(=O)O)C(=O)c1cccc(C#Cc2ccccc2C)c1` [(143)] were, in that order, 30 µM and 74 µM.
For `CCCN(C(=O)N[C@@H](CSCC(C)C)C(=O)O)C(=O)c1cccc(C#Cc2cccc(C)c2)c1` [(144)], the half-inhibitory concentration (IC50) stood at 39 µM in assay [2] and 66 µM in assay [3].
For the molecule `CCCN(C(=O)N[C@@H](CSCC(C)C)C(=O)O)C(=O)c1cccc(C#Cc2ccc(C)cc2)c1` [(145)], the concentration for half-maximal inhibition (IC50) turned out to be 48 µM in assay [2] and 92 µM in assay [3].
In assay [2], `CCCN(C(=O)N[C@@H](CSCC(C)C)C(=O)O)C(=O)c1cccc(C#Cc2ccccc2OC)c1` [(146)] came in with an IC50 of 46 µM. Moreover, the “Mcl-1 IC50 (µM)” value in assay [3] is on record as “n.b.^b”.
`CCCN(C(=O)N[C@@H](CSCC(C)C)C(=O)O)C(=O)c1cccc(C#Cc2ccc(OC)cc2)c1` [(147)]: the half-maximal inhibitory concentration (IC50) in assay [2] was found to be 50 µM; in assay [3], 85 µM.
On to `CCCN(C(=O)N[C@@H](CSCC(C)C)C(=O)O)C(=O)c1cccc(C#Cc2ccc(Oc3ccccc3)cc2)c1` [(148)], for which the 50% inhibitory concentration (IC50) in assay [2] is 172 µM; in assay [3], 71 µM.
`CCCN(C(=O)N[C@@H](CSCC(C)C)C(=O)O)C(=O)c1cccc(C#Cc2ccc(C(C)(C)C)cc2)c1` [(149)] displayed an IC50 in assay [2] of 107 µM.
As to `CCCN(C(=O)N[C@@H](CSCC(C)C)C(=O)O)C(=O)c1cccc(C#Cc2ccncc2)c1` [(150)], in assay [2], the “Bcl-xLΔ25 IC50 (µM)” value is listed as “n.b.^b”.
With `CCCN(C(=O)N[C@@H](CSCC(C)C)C(=O)O)C(=O)c1cccc(C#Cc2cccnc2)c1` [(151)], the IC50 in assay [2] was 212 µM.
With `CCCN(C(=O)N[C@@H](CSCC(C)C)C(=O)NS(=O)(=O)c1ccc(Br)cc1)C(=O)c1cccc(C#Cc2ccccc2)c1` [(152)], the IC50 in assay [2] is 48 µM.
The same measure, in the same setting: the value for `CCCN(C(=O)N[C@@H](CSCC(C)C)C(=O)NS(=O)(=O)c1cccc(Br)c1)C(=O)c1cccc(C#Cc2ccccc2)c1` [(153)] was 40 µM; that for `CCCN(C(=O)N[C@@H](CSCC(C)C)C(=O)NS(=O)(=O)c1ccc(-c2ccccc2)cc1)C(=O)c1cccc(C#Cc2ccccc2)c1` [(154)] was 42 µM; that for `CCCN(C(=O)N[C@@H](CSCC(C)C)C(=O)NS(=O)(=O)c1ccc(NCCSc2ccccc2)c([N+](=O)[O-])c1)C(=O)c1cccc(C#Cc2ccccc2)c1` [(156)] was 10 µM.
